In article PMC5340827 (European Journal of Drug Metabolism and Pharmacokinetics, 2016):

Legend:
[1] = Pharmacokinetics and bioavailability after single s.c. injection; conditions: for extent of biological availability (EBA), solution relative to suspension: (AUCsolution/AUCsuspension) × 100 %, from AUC0−∞; for presence in the plasma after injection in the form of suspension: 24 h after s.c. 6 mg/kg
[2] = cited from earlier work
[3] = system: LH, FSH and 17β-estradiol in the serum; assay: Hormonal profile; format: in vivo, rat; conditions: s.c. 1 µg/kg; for highest estradiol concentration, suspension form: 1 h after injection

Substance | EBA of dalarelin relative to buserelin, form of solution ([1]; (AUCdalarelin solution/AUCbuserelin solution) × 100 %) [%] | EBA of dalarelin relative to buserelin, form of suspension ([1]; (AUCdalarelin suspension/AUCbuserelin suspension) × 100 %) [%] | extent of biological availability (EBA), solution relative to suspension [1] [%] | presence in the plasma after injection in the form of suspension [1] | activity / relative potency in relation to natural GnRH [2] | time of maximal concentration of estradiol, form of solution ([3]; solution) [min] | highest estradiol concentration, suspension form [3] [pg/mL] | time of highest concentration of FSH, suspension form [3] [h] | maximal concentration of estradiol, form of solution ([3]; solution, 30 min after injection) [pg/mL]
dalarelin | 53 | 83 | 8 | detectable in the plasma even after 24 h | roughly 14 times | 30 | 24.2 | 2 | –
buserelin | – | – | 13 | detectable in the plasma even after 24 h | 20 times | 30 | 21.4 | 4 | 45.7
